Results published in US10450356B2, “PRAME derived peptides and immunogenic compositions comprising these” (Academisch Ziekenhuis Leiden H.O.D.N. LUMC, priority 2007, dated 2019).

Target: T1, 20S proteasomes purified from a B-LCL cell line (immunoproteasomes) (Homo sapiens, UniProt P28062+P28065+P40306)
T1 construct: 20S proteasomes were purified from a B-LCL cell line; endogenous in cells; purified after Groettrup et al. 1995
Assay: In vitro proteasome mediated cleavage analysis
Assay type: biochemical
Set-up: key to Intact in fragment / Intact Fragment: intact epitope found in digestion fragments: (+), present; (-), not present; key to Processing C-term: generation by proteasome-mediated digestion of fragments containing the correct C-terminus: (++) fragments present for >5%; (+) present for <5%; (-) no fragments containing the C-term. were found
Settings: for Processing C-term: generation by proteasome-mediated digestion of fragments containing the correct C-terminus: 1 h digestion; for Intact Fragment: intact epitope found in digestion fragments: after 1 h digestion; for C-term. generation: generation of C-terminus of the epitope after 1 h digestion; for Intact in fragment: intact epitope found in digestion fragments after 1 h digestion
Experimental: 20S proteasomes were purified from a B-LCL cell line as described by Groettrup et al. (J. Biol. Chem. 270:23808-23815; 1995). This cell type is known to contain immunoproteasomes. High LMP2 and 7 content was confirmed by 2-D immuno-blotting. To assess kinetics, digestions were performed with different incubation periods. Peptides (27 mers, 20 μg) were incubated with 1 μg of purified proteasome at 37° C. for 1 h, 4 h and 24 h in 300 μl proteasome digestion buffer as described (Eggers, et al. 1995. J. Exp. Med. 182:1865). Trifluoroacetic acid was added to stop the digestion and samples were stored at −20° C. before mass spectrometric analysis.
Electrospray ionization mass spectrometry was performed on a hybrid quadrupole time-of-flight mass spectrometer, a Q-TOF (Micromass), equipped with an on-line nanoelectrospray interface with an approximate flow rate of 250 nL/min. Injections were done with a dedicated micro/nano HPLC autosampler, the FAMOS (LC Packings). Digestion solutions were diluted five times in water-methanol-acetic acid (95:5:1, v/v/v), and trapped on the precolumn (MCA-300-05-C8; LC Packings) in water-methanol-acetic acid (95:5:1, v/v/v). Washing of the precolumn was done for 3 min to remove the buffers present in the digests. Subsequently, the trapped analytes were eluted with a steep gradient going from 70% B to 90% B in 10 min, with a flow of 250 nl/min (A: water-methanol-acetic acid (95:5:1, v/v/v); B: water-methanol-acetic acid (10:90:1, v/v/v)). This low elution rate allows for a few additional MS/MS experiments if necessary during the same elution. Mass spectra were recorded from mass 50-2000 Da every second. The resolution allows direct determination of the monoisotopic mass, also from multiple charged ions. The peaks in the mass spectrum were searched in the digested precursor peptide using the Biolynx/proteins software (Micromass). The intensity of the peaks in the mass spectra was used to establish the relative amounts of peptides generated by proteasome digestion.

Row | Processing C-term: generation by proteasome-mediated digestion of fragments containing the correct C-terminus | Intact Fragment: intact epitope found in digestion fragments | C-term. generation | Intact in fragment | SMILES
1 | - | - |  |  | CC(C)C[C@H](NC(=O)[C@H](Cc1c[nH]cn1)NC(=O)[C@H](CCC(N)=O)NC(=O)[C@H](CC(C)C)NC(=O)[C@H](CC(C)C)NC(=O)[C@H](CO)NC(=O)[C@H](CCC(N)=O)NC(=O)[C@H](CC(C)C)NC(=O)[C@H](C)N)C(=O)O
2 | + ((+) present for <5%) | + | + (low abundant (+) present for <5%) | + | CC(C)C[C@H](NC(=O)[C@H](CCC(=O)O)NC(=O)[C@H](CCCNC(=N)N)NC(=O)[C@H](CC(C)C)NC(=O)[C@H](CCCNC(=N)N)NC(=O)[C@H](C)NC(=O)[C@H](Cc1c[nH]cn1)NC(=O)[C@H](CC(C)C)NC(=O)[C@H](Cc1ccc(O)cc1)NC(=O)[C@H](C)N)C(=O)O
3 | + ((+) present for <5%) | + | + (low abundant (+) present for <5%) | + | CC(C)C[C@H](NC(=O)[C@@H]1CCCN1C(=O)[C@H](CCC(=O)O)NC(=O)[C@@H]1CCCN1C(=O)[C@H](CO)NC(=O)[C@@H](NC(=O)[C@H](CC(=O)O)NC(=O)[C@@H](NC(=O)[C@@H](N)CC(C)C)[C@@H](C)O)C(C)C)C(=O)N[C@@H](CCC(N)=O)C(=O)N[C@@H](C)C(=O)O
4 | - | - |  |  | CSCC[C@H](N)C(=O)N[C@@H](CC(C)C)C(=O)N[C@H](C(=O)N[C@@H](CC(=O)O)C(=O)N[C@H](C(=O)N[C@@H](CO)C(=O)N1CCC[C@H]1C(=O)N[C@@H](CCC(=O)O)C(=O)N1CCC[C@H]1C(=O)N[C@@H](CC(C)C)C(=O)O)C(C)C)[C@@H](C)O
5 | - | - |  |  | CC(C)C[C@H](NC(=O)[C@@H](NC(=O)[C@H](Cc1c[nH]cn1)NC(=O)[C@@H](NC(=O)[C@H](CC(C)C)NC(=O)[C@@H](N)CC(N)=O)[C@@H](C)O)C(C)C)C(=O)N[C@@H](Cc1ccc(O)cc1)C(=O)N1CCC[C@H]1C(=O)N[C@H](C(=O)O)C(C)C
6 | ++ ((++) fragments present for >5%) | + | ++ (abundant (++) present for >5%) | + | CC(C)C[C@H](NC(=O)[C@H](CCCNC(=N)N)NC(=O)[C@H](C)NC(=O)[C@H](Cc1c[nH]cn1)NC(=O)[C@H](CC(C)C)NC(=O)[C@H](Cc1ccc(O)cc1)NC(=O)[C@H](C)NC(=O)[C@H](CC(C)C)NC(=O)[C@@H](N)CCCNC(=N)N)C(=O)O
7 | - | - |  |  | CC[C@H](C)[C@H](NC(=O)[C@H](CO)NC(=O)CNC(=O)[C@H](Cc1c[nH]c2ccccc12)NC(=O)[C@H](CC(C)C)NC(=O)[C@@H](N)CCCNC(=N)N)C(=O)N[C@@H](CCC(N)=O)C(=O)N[C@@H](CO)C(=O)N[C@@H](CCCNC(=N)N)C(=O)O
8 | ++ ((++) fragments present for >5%) | + | ++ (abundant (++) present for >5%) | + | CC[C@H](C)[C@H](NC(=O)[C@H](CO)NC(=O)[C@@H](NC(=O)[C@H](CO)NC(=O)[C@H](CC(N)=O)NC(=O)CNC(=O)[C@H](Cc1ccc(O)cc1)NC(=O)[C@H](Cc1ccccc1)NC(=O)[C@@H](N)CO)[C@@H](C)CC)C(=O)O
9 | - | - |  |  | CC[C@H](C)[C@H](NC(=O)[C@H](CC(=O)O)NC(=O)[C@H](CCC(=O)O)NC(=O)[C@H](Cc1ccc(O)cc1)NC(=O)[C@@H](N)CO)C(=O)N[C@@H](Cc1c[nH]cn1)C(=O)NCC(=O)N[C@H](C(=O)N[C@@H](CC(C)C)C(=O)O)[C@@H](C)O
10 | - | - | ++ (abundant (++) present for >5%) | + | CC[C@H](C)[C@H](NC(=O)[C@H](CO)NC(=O)[C@H](CC(N)=O)NC(=O)CNC(=O)[C@H](Cc1ccc(O)cc1)NC(=O)[C@H](Cc1ccccc1)NC(=O)[C@H](CO)NC(=O)[C@H](CC(C)C)NC(=O)[C@@H](N)[C@@H](C)O)C(=O)O

Continued, molecule first:

Row | SMILES | Processing C-term: generation by proteasome-mediated digestion of fragments containing the correct C-terminus | Intact Fragment: intact epitope found in digestion fragments | C-term. generation | Intact in fragment
11 | CC[C@H](C)[C@H](NC(=O)[C@H](CC(C)C)NC(=O)[C@H](Cc1c[nH]cn1)NC(=O)[C@H](CCC(N)=O)NC(=O)[C@H](CC(C)C)NC(=O)[C@H](CC(C)C)NC(=O)[C@H](CO)NC(=O)[C@H](CCC(N)=O)NC(=O)[C@H](CC(C)C)NC(=O)[C@H](C)N)C(=O)O | - | - |  | 
12 | CC(C)C[C@H](NC(=O)[C@H](CC(C)C)NC(=O)[C@H](CCC(N)=O)NC(=O)[C@H](CC(=O)O)NC(=O)[C@H](CC(C)C)NC(=O)[C@H](CCCNC(=N)N)NC(=O)CNC(=O)[C@H](CCCNC(=N)N)NC(=O)[C@H](CC(C)C)NC(=O)[C@@H](N)Cc1ccccc1)C(=O)O | - | - |  | 
13 | CC(C)C[C@H](NC(=O)[C@@H](NC(=O)[C@H](Cc1c[nH]cn1)NC(=O)[C@@H](NC(=O)[C@H](CC(C)C)NC(=O)[C@H](CC(N)=O)NC(=O)[C@H](CO)NC(=O)[C@H](CC(C)C)NC(=O)CN)[C@@H](C)O)C(C)C)C(=O)O | + ((+) present for <5%) | - |  | 
14 | CC(C)C[C@H](NC(=O)[C@@H]1CCCN1C(=O)[C@H](CCC(=O)O)NC(=O)[C@@H]1CCCN1C(=O)[C@H](CO)NC(=O)[C@@H](NC(=O)[C@H](CC(=O)O)NC(=O)[C@@H](NC(=O)[C@@H](N)CC(C)C)[C@@H](C)O)C(C)C)C(=O)N[C@@H](CCC(N)=O)C(=O)O | + ((+) present for <5%) | + | + (low abundant (+) present for <5%) | +
15 | CC[C@H](C)[C@H](NC(=O)[C@H](Cc1ccc(O)cc1)NC(=O)[C@@H](N)CCCNC(=N)N)C(=O)N[C@@H](CO)C(=O)N[C@@H](CCSC)C(=O)N[C@@H](CO)C(=O)N[C@H](C(=O)N[C@@H](Cc1c[nH]c2ccccc12)C(=O)N[C@H](C(=O)N[C@@H](CO)C(=O)O)[C@@H](C)O)C(C)C | - | - |  | 
16 | CC[C@H](C)[C@H](NC(=O)[C@@H](N)CO)C(=O)N[C@@H](CO)C(=O)N[C@@H](C)C(=O)N[C@@H](CC(C)C)C(=O)N[C@@H](CCC(N)=O)C(=O)N[C@@H](CO)C(=O)N[C@@H](CC(C)C)C(=O)N[C@@H](CC(C)C)C(=O)O | - | - |  | 
17 | CSCC[C@H](NC(=O)[C@@H](NC(=O)CNC(=O)[C@H](CO)NC(=O)[C@H](CC(C)C)NC(=O)[C@@H](N)CO)C(C)C)C(=O)N[C@@H](CC(C)C)C(=O)N[C@H](C(=O)N[C@@H](CC(=O)O)C(=O)N[C@H](C(=O)O)C(C)C)[C@@H](C)O | - | - |  | 
18 | CC(C)C[C@H](NC(=O)[C@H](CCCNC(=N)N)NC(=O)[C@H](CCC(=O)O)NC(=O)[C@H](CC(C)C)NC(=O)[C@H](Cc1c[nH]cn1)NC(=O)[C@H](CC(C)C)NC(=O)[C@@H](N)[C@@H](C)O)C(=O)N[C@@H](C)C(=O)N[C@@H](Cc1ccc(O)cc1)C(=O)O | - | - |  | 
19 | CC(C)C[C@H](NC(=O)[C@H](Cc1ccc(O)cc1)NC(=O)[C@H](C)NC(=O)[C@H](CC(C)C)NC(=O)[C@H](CCCNC(=N)N)NC(=O)[C@H](CCC(=O)O)NC(=O)[C@H](CC(C)C)NC(=O)[C@H](Cc1c[nH]cn1)NC(=O)[C@H](CC(C)C)NC(=O)[C@@H](N)[C@@H](C)O)C(=O)O | - | - |  | 
